{
  "source": "patent US8338428B2",
  "about": "“Methods for administering aripiprazole” (Alkermes, Inc., priority 2003, dated 2012)",
  "assay": "Pharmacokinetic evaluation of aripiprazole in rats following single subcutaneous doses of aripiprazole formulations",
  "assay_type": "in vivo, Sprague-Dawley rats",
  "conditions": "rat, single SC injection of 10, 20 or 30 mg bulk drug in 0.75 mL diluent (3% CMC, 0.1% Tween 20, 0.9% NaCl); plasma 2 h to 28 d; versus microspheres with 30% or 50% load",
  "note": "“Also recorded” adds a separate entry of the source.",
  "method": "Experimental: Pharmacokinetic Evaluation of Aripiprazole in Rats Following Administration of Single Subcutaneous Doses of Aripiprazole Formulations. Species and Strain: Sprague-Dawley rats. Male; 450 +/−50 grams. Study Groups: 5 Groups, 15 subjects • Group A: three rats injected once SC with 10 mg of Aripiprazole. • Group B: three rats injected once SC with 20 mg of Aripiprazole. • Group C: three rats injected once SC with 30 mg of Aripiprazole. • Group D: three rats injected once SC with ˜67 mg of microparticles. • Group E: three rats injected once SC with ˜40 mg of microparticles. […] Route of Injection: Subcutaneous (SC) injection into the interscapular region. Injection Vehicle: Aqueous diluent containing 3% CMC (low viscosity), 0.1% Tween 20, in 0.9% NaCl and water. Dose Volumes: Suspensions were formulated as follows: • Group A: 10 mg powder in 0.75 mL Diluent • Group B: 20 mg powder in 0.75 mL Diluent • Group C: 30 mg powder in 0.75 mL Diluent • Group D: ˜67 mg microparticles in 0.75 mL Diluent • Group E: 40 mg microparticles in 0.75 mL Diluent Blood Collection: Blood samples were collected via a lateral tail vein after anesthesia with Halothane. A syringe without an anticoagulant was used for the blood collection, then the whole blood was transferred to tubes containing K2 EDTA and mixing beads (MICROTAINER®; MFG# BD365974). […]",
  "data": [
    {"smiles": "O=C1CCc2ccc(OCCCCN3CCN(c4cccc(Cl)c4Cl)CC3)cc2N1", "note": "[aripiprazole, Aripiprazole]", "values": [
      {"measurement": "plasma release profile of SC bolus injection compared with aripiprazole-containing PLGA microspheres", "result": "substantially the same; also recorded: extended release profile similar to that obtained by the injection of a poly lactide-co-glycolide microsphere formulation"}
    ]}
  ]
}
